From ChEMBL document CHEMBL4507268 (2021)

Tests used:
[1] = tested on: SK-BR-3; assay: Proliferation assay: SK-BR-3 (breast cancer); assay type: functional, cell-based; settings: Homo sapiens
[2] = tested on: Tyrosine-protein kinase ABL1 (Homo sapiens), P00519 [Q252H]; settings: Compound concentration 1000.0 nM
[3] = biological target: Aurora kinase B (Homo sapiens) (UniProt Q96GD4); settings: Compound concentration 1000.0 nM
[4] = biological target: Bone morphogenetic protein receptor type-1B (Homo sapiens) (UniProt O00238); settings: Compound concentration 1000.0 nM
[5] = biological target: Death-associated protein kinase 2 (Homo sapiens) (UniProt Q9UIK4); settings: Compound concentration 1000.0 nM
[6] = biological target: Myotonin-protein kinase (Homo sapiens) (UniProt Q09013); settings: Compound concentration 1000.0 nM
[7] = biological target: Tyrosine-protein kinase Fyn (Homo sapiens) (UniProt P06241); settings: Compound concentration 1000.0 nM
Tyrosine-protein kinase Fyn (Homo sapiens), sequence (P06241 2-537 limits assumed): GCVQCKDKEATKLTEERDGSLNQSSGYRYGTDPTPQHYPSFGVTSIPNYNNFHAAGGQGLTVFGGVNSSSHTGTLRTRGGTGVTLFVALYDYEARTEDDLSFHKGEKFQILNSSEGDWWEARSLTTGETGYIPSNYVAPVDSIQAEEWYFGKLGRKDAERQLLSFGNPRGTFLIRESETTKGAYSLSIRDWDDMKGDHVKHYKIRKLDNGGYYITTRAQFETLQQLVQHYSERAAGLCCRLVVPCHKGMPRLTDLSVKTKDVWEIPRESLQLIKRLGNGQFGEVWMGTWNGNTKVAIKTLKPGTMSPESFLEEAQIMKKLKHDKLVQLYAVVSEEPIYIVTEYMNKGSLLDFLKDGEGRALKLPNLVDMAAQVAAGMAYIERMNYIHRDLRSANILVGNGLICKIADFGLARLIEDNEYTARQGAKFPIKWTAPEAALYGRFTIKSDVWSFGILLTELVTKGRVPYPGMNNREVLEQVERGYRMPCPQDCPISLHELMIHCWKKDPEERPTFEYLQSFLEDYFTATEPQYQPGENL

[8] = biological target: T1, Beta-adrenergic receptor kinase 1 (Homo sapiens) (UniProt P25098); settings: Compound concentration 1000.0 nM
T1 sequence (whole entry): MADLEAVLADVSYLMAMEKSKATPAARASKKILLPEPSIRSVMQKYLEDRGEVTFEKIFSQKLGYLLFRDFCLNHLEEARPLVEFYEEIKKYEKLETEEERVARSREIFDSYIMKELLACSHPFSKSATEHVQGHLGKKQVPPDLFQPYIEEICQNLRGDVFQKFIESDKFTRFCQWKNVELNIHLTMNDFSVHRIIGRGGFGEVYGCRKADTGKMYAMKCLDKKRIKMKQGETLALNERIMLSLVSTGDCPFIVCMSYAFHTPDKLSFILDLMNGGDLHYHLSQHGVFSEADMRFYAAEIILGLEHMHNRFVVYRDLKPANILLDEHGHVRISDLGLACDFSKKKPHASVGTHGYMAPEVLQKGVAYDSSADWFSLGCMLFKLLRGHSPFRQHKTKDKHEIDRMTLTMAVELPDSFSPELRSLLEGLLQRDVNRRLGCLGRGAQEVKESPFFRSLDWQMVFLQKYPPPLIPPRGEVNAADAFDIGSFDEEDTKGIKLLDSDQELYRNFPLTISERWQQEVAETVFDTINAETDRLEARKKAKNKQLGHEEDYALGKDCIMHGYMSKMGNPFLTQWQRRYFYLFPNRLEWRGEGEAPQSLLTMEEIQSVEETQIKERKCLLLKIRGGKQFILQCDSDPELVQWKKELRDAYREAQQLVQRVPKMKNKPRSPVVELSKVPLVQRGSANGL

[9] = biological target: Mitogen-activated protein kinase kinase kinase kinase 2 (Homo sapiens) (UniProt Q12851); settings: Compound concentration 1000.0 nM
Mitogen-activated protein kinase kinase kinase kinase 2 (Homo sapiens), sequence (Q12851 whole entry): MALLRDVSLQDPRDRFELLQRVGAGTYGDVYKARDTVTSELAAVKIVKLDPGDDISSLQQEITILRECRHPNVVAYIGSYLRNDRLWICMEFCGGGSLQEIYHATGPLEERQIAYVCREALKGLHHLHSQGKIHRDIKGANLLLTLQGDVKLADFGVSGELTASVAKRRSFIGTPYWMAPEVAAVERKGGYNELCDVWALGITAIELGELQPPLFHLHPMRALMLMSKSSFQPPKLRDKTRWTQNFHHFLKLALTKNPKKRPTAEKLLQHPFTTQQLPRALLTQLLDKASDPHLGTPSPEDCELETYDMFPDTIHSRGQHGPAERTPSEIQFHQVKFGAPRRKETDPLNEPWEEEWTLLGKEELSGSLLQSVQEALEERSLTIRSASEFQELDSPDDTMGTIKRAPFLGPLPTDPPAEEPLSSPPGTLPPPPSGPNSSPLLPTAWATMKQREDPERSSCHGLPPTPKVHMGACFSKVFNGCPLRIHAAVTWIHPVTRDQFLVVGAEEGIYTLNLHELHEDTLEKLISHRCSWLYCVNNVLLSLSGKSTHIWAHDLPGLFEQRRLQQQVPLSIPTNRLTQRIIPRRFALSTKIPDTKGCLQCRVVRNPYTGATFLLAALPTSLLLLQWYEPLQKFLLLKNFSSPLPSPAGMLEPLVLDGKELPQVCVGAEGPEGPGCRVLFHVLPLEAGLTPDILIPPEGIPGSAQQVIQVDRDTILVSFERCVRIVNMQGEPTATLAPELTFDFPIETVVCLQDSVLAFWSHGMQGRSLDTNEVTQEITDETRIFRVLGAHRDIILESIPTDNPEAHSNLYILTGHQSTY

[10] = biological target: MAP kinase-interacting serine/threonine-protein kinase 2 (Homo sapiens) (UniProt Q9HBH9); settings: Compound concentration 1000.0 nM
[11] = biological target: Myosin light chain kinase, smooth muscle (Homo sapiens) (UniProt Q15746); settings: Compound concentration 1000.0 nM
[12] = biological target: T2, Serine/threonine-protein kinase Nek3 (Homo sapiens) (UniProt P51956); settings: Compound concentration 1000.0 nM
T2 sequence (whole entry): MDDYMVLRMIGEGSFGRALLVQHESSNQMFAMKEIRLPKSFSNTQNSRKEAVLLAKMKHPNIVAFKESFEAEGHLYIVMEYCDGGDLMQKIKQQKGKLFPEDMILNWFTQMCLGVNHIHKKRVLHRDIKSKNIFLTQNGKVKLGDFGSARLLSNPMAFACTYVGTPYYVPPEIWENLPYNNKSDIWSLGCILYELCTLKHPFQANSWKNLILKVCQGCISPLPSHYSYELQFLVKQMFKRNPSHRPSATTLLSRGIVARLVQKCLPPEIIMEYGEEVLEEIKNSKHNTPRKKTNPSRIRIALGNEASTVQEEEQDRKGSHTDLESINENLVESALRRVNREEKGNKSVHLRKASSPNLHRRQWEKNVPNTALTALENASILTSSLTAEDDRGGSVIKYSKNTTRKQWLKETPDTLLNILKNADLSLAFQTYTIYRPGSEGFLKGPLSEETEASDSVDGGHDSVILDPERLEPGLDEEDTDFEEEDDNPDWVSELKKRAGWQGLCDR

[13] = biological target: Mitogen-activated protein kinase 14 (Homo sapiens) (UniProt Q16539); settings: Compound concentration 1000.0 nM
Mitogen-activated protein kinase 14 (Homo sapiens), sequence (Q16539 whole entry): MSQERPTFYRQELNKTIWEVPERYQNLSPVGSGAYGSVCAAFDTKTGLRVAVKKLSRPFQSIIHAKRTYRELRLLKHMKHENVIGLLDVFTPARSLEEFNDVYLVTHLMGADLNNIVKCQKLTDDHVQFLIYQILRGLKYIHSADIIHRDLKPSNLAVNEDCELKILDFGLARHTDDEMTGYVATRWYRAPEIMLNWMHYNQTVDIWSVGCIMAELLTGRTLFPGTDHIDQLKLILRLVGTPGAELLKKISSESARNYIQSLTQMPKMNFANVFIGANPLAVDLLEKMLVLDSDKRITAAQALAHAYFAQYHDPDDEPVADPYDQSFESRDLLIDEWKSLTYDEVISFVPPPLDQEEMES

[14] = biological target: Serine/threonine-protein kinase PAK 6 (Homo sapiens) (UniProt Q9NQU5); settings: Compound concentration 1000.0 nM
Serine/threonine-protein kinase PAK 6 (Homo sapiens), sequence (Q9NQU5 whole entry, looked up): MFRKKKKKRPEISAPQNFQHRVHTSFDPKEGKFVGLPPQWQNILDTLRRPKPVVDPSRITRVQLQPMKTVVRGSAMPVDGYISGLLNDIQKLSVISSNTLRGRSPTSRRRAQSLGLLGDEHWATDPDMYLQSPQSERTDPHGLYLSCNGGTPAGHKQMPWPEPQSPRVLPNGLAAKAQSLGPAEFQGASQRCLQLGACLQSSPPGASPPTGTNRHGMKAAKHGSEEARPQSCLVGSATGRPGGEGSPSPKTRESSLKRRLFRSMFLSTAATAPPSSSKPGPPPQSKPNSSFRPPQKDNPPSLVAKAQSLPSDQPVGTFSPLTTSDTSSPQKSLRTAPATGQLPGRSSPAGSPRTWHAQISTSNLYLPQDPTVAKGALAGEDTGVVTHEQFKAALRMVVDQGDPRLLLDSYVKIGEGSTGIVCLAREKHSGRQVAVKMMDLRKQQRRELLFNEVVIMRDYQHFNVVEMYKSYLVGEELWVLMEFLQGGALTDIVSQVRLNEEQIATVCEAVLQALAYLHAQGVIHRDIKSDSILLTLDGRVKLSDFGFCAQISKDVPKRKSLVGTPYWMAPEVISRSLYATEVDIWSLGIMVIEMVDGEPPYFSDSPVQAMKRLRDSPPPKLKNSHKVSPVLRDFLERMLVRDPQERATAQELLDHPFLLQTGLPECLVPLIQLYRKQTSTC

[15] = biological target: Cyclin-dependent kinase 16 (Homo sapiens) (UniProt Q00536); settings: Compound concentration 1000.0 nM
[16] = biological target: Platelet-derived growth factor receptor beta (Homo sapiens) (UniProt P09619); settings: Compound concentration 1000.0 nM
[17] = biological target: Protein kinase C eta type (Homo sapiens) (UniProt P24723); settings: Compound concentration 1000.0 nM
[18] = biological target: Serine/threonine-protein kinase SIK3 (Homo sapiens) (UniProt Q9Y2K2); settings: Compound concentration 1000.0 nM
Serine/threonine-protein kinase SIK3 (Homo sapiens), sequence (Q9Y2K2 whole entry, looked up): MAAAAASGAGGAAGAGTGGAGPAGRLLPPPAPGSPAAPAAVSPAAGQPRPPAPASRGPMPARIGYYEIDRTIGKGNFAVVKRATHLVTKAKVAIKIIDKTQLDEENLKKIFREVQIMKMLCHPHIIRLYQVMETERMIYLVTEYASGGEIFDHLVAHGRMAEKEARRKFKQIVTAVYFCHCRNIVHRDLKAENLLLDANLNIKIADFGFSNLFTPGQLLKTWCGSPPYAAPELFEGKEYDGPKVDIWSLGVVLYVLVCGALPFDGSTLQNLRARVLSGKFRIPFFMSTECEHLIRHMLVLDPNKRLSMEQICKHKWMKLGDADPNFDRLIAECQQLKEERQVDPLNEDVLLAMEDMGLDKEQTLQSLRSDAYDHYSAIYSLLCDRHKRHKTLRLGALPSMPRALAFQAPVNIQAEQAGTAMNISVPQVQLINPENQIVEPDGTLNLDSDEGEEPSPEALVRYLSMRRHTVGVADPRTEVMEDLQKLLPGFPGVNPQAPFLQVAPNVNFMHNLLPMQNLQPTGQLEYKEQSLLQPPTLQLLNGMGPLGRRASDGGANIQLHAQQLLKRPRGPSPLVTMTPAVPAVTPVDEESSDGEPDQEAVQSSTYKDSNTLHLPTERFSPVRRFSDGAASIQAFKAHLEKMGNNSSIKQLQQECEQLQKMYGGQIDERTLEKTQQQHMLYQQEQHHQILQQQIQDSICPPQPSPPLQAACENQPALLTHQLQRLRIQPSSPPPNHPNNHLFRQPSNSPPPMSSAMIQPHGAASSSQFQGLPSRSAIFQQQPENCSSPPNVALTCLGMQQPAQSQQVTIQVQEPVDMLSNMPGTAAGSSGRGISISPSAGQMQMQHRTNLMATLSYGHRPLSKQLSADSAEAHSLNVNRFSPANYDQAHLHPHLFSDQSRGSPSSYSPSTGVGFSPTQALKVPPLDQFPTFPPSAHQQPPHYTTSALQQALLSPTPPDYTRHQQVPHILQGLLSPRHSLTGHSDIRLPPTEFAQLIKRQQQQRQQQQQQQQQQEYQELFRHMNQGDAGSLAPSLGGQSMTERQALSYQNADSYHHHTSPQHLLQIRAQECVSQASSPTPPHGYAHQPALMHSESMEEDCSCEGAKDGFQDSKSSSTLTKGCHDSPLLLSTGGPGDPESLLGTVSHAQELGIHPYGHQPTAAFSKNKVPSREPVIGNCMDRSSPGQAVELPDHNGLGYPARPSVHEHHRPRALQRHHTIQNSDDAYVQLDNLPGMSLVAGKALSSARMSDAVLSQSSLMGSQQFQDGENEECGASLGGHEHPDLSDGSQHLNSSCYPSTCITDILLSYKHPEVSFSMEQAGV

[19] = tested on: Proto-oncogene tyrosine-protein kinase receptor Ret (Homo sapiens), P07949 [M918T]; settings: Compound concentration 1000.0 nM
Proto-oncogene tyrosine-protein kinase receptor Ret (Homo sapiens), P07949 [M918T], sequence (P07949 whole entry M918T): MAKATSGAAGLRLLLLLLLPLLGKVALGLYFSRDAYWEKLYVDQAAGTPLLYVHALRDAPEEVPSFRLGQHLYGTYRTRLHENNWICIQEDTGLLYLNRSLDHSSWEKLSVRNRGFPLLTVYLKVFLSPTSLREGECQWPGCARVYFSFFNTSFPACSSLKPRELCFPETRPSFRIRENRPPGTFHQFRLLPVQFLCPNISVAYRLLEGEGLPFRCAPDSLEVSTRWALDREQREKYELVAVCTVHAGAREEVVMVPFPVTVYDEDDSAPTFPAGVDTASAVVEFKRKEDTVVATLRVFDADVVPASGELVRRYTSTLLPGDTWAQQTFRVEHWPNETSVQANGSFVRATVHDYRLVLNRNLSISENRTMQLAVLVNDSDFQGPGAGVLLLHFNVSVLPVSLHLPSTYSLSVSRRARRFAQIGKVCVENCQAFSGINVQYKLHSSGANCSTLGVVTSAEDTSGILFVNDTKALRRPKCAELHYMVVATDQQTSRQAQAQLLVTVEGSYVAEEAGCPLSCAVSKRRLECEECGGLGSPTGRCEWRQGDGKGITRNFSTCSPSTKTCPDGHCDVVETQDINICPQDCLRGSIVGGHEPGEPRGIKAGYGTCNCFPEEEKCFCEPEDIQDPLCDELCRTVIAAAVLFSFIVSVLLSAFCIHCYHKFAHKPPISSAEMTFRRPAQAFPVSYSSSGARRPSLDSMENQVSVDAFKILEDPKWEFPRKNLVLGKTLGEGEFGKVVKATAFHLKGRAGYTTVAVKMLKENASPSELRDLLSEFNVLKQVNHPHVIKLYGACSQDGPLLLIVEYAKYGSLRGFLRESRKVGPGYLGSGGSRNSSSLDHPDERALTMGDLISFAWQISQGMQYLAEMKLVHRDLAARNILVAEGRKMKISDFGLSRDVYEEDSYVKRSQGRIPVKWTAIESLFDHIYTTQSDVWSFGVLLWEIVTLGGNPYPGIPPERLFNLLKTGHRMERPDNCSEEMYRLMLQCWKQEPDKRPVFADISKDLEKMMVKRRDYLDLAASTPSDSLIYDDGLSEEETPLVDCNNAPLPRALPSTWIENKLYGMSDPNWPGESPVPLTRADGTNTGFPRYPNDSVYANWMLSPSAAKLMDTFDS

[20] = biological target: Dual serine/threonine and tyrosine protein kinase (Homo sapiens) (UniProt Q6XUX3); settings: Compound concentration 1000.0 nM
[21] = biological target: Ribosomal protein S6 kinase alpha-1 (Homo sapiens) (UniProt Q15418); settings: Compound concentration 1000.0 nM
[22] = biological target: Tyrosine-protein kinase receptor Tie-1 (Homo sapiens) (UniProt P35590); settings: Compound concentration 1000.0 nM
[23] = biological target: Serine/threonine-protein kinase VRK2 (Homo sapiens) (UniProt Q86Y07); settings: Compound concentration 1000.0 nM
[24] = biological target: Mitogen-activated protein kinase kinase kinase 19 (Homo sapiens) (UniProt Q56UN5); settings: Compound concentration 1000.0 nM
[25] = biological target: Histamine H3 receptor (Homo sapiens) (UniProt Q9Y5N1); settings: Compound concentration 10.0 uM

Row | Compound | IC50 [1] | residual activity [2] | residual activity [3] | residual activity [4] | residual activity [5] | residual activity [6] | residual activity [7] | residual activity [8] | residual activity [9] | residual activity [10] | residual activity [11] | residual activity [12] | residual activity [13] | residual activity [14] | residual activity [15] | residual activity [16] | residual activity [17] | residual activity [18] | residual activity [19] | residual activity [20] | other results
1 | Cc1nc(C2CCN(C(=O)c3ccc(OC(F)(F)F)cc3N)CC2)c2ncc(N3CCN(C)CC3)cc2n1 [BAY-693] | 22.4 µM (not active) | 100% | 88% | 93% | 100% | 100% | 96% | 92% | 80% | 100% | 100% | 89% | 100% | 93% | 100% | 95% | 88% | 91% | 86% | 95% | residual activity [21]: 93%; residual activity [22]: 100%; residual activity [23]: 100%; residual activity [24]: 79%; inhibition [25]: 38.4%
2 | CN1CCN(c2cnc3c(C4CCN(C(=O)c5ccc(OC(F)(F)F)cc5N)CC4)ncnc3c2)CC1 [BAY-885] | > 30 µM (not active) | 100% | 90% | 100% | 90% | 89% | 100% | 100% | 82% | 100% | 88% | 97% | 99% | 100% | 100% | 95% | 86% | 100% | 100% | 100% | residual activity [21]: 100%; residual activity [22]: 80%; residual activity [23]: 100%; residual activity [24]: 83%; inhibition [25]: 36.9%
